According to patent US10202339B2, “Therapeutic compounds and compositions” (AGIOS PHARMACEUTICALS, INC., priority 2012, dated 2019):

Biological target: IDH2 R140Q (Homo sapiens (Human), UniProt P48735, R140Q)
Test: IDH2 R140Q enzymatic cofactor depletion assay (diaphorase/resazurin)
Assay type: biochemical
Conditions: IDH2 R140Q enzyme, one hour preincubation with compound, one hour reaction; read-out: Enz R140Q
Summary of the method: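 Enzyme preincubated with compound 1 h at room temperature, then reaction started with 50 μM NADPH and 6.3 mM α-KG and run 1 h at room temperature. Remaining NADPH measured by diaphorase (36 μg/ml)/resazurin (60 μM) stop mix, fluorescence read at Ex544/Em590 after 1 min.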

Chain of IDH2 R140Q (P48735 40-452 R140Q): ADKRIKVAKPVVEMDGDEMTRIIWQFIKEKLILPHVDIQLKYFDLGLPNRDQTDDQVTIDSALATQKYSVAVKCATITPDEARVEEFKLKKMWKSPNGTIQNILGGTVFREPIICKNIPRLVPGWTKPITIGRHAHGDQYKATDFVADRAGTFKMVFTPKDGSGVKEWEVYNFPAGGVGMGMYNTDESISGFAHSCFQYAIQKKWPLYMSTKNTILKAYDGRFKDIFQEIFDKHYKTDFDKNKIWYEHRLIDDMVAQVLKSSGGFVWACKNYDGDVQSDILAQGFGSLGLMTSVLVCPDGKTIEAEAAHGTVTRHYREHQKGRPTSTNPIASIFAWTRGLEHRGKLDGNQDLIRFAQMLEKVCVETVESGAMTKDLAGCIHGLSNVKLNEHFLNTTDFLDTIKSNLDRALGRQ

CCOc1ncc(S(=O)(=O)NC2COC2)cc1NC(=O)Nc1cccc(C(F)(F)F)c1 [Compound 199, 6-ethoxy-N-(oxetan-3-yl)-5-(3-(3-(trifluoromethyl)phenyl)ureido)pyridine-3-sulfonamide]
IC50: 100 to 1000 nM

O=C(Nc1cc(F)ccc1F)Nc1cc(S(=O)(=O)NCC(F)(F)F)ccc1-c1ccccc1 [Compound 38, 2-(3-(2,5-difluorophenyl)ureido)-N-(2,2,2-trifluoroethyl)-[1,1′-biphenyl]-4-sulfonamide]
IC50: 100 to 1000 nM

O=C(Nc1ccc(F)c(C(F)(F)F)c1)Nc1cc(S(=O)(=O)NCC(F)(F)F)ccc1C1=CCOCC1 [Compound 159, 4-(3,6-dihydro-2H-pyran-4-yl)-3-(3-(4-fluoro-3-(trifluoromethyl)phenyl)ureido)-N-(2,2,2-trifluoroethyl)benzenesulfonamide]
IC50: 100 to 1000 nM

O=C(Nc1cncc(F)c1)Nc1cc(S(=O)(=O)NCC(F)(F)F)ccc1-c1ccccc1 [Compound 98, 2-(3-(5-fluoropyridin-3-yl)ureido)-N-(2,2,2-trifluoroethyl)-[1,1′-biphenyl]-4-sulfonamide]
IC50: 100 to 1000 nM

O=C(Nc1nccc(Cl)n1)Nc1cc(S(=O)(=O)NCC(F)(F)F)ccc1-c1ccccc1 [Compound 105, 2-(3-(4-chloropyrimidin-2-yl)ureido)-N-(2,2,2-trifluoroethyl)-[1,1′-biphenyl]-4-sulfonamide]
IC50: 100 to 1000 nM

O=C(Nc1cc(C(F)(F)F)ccn1)Nc1cc(S(=O)(=O)NCC(F)(F)F)ccc1OCC1CC1 [Compound 189, 4-(cyclopropylmethoxy)-N-(2,2,2-trifluoroethyl)-3-(3-(4-(trifluoromethyl)pyridin-2-yl)ureido)benzene sulfonamide]
IC50: 100 to 1000 nM

O=C(Nc1ccccc1OC(F)(F)F)Nc1cc(S(=O)(=O)NCC(F)(F)F)ccc1-c1ccccc1 [Compound 43, N-(2,2,2-trifluoroethyl)-2-(3-(2-(trifluoromethoxy)phenyl)ureido)-[1,1′-biphenyl]-4-sulfonamide]
IC50: 100 to 1000 nM

O=C(Nc1cccc(C(F)(F)F)c1)Nc1cc(S(=O)(=O)NCC(F)(F)F)ccc1C1=CCOCC1 [Compound 157, 4-(3,6-dihydro-2H-pyran-4-yl)-N-(2,2,2-trifluoroethyl)-3-(3-(3-(trifluoromethyl)phenyl)ureido)benzene sulfonamide]
IC50: 1000 to 10000 nM

O=C(Nc1cccc(C(F)(F)F)c1)Nc1cc(S(=O)(=O)NCC2CCCC2)ccc1-c1ccsc1 [Compound 129, N-(cyclopentylmethyl)-4-(thiophen-3-yl)-3-(3-(3-(trifluoromethyl)phenyl)ureido)benzenesulfonamide]
IC50: 100 to 1000 nM

O=C(Nc1cccc(C(F)(F)F)c1)Nc1cc(S(=O)(=O)Nc2cc[nH]n2)ccc1-c1ccsc1 [Compound 148]
IC50: 1000 to 10000 nM

C[C@H](NS(=O)(=O)c1ccc(-c2ccsc2)c(NC(=O)Nc2cccc(C(F)(F)F)c2)c1)c1ccccc1 [Compound 145]
IC50: 1000 to 10000 nM

O=C(Nc1ccccc1F)Nc1cc(S(=O)(=O)Nc2ccccc2)ccc1-c1ccsc1 [Compound 9, 3-(3-(2-fluorophenyl)ureido)-N-phenyl-4-(thiophen-3-yl)benzenesulfonamide]
IC50: 100 to 1000 nM

O=C(Nc1cccc(C(F)(F)F)c1)Nc1cc(S(=O)(=O)NC2CC2)cnc1N1CCOCC1 [Compound 357]
IC50: 1000 to 10000 nM

O=C(Nc1cc(S(=O)(=O)NCC(F)(F)F)ccc1-c1ccccc1)NC1CCCC1 [Compound 54]
IC50: 1000 to 10000 nM

O=C(Nc1cc(C(F)(F)F)ccn1)Nc1cc(S(=O)(=O)NCC(F)(F)F)ccc1-c1ccccc1 [Compound 87, N-(2,2,2-trifluoroethyl)-2-(3-(4-(trifluoromethyl)pyridin-2-yl)ureido)-[1,1′-biphenyl]-4-sulfonamide]
IC50: 100 to 1000 nM

CCOc1ccc(S(=O)(=O)NCC(F)(F)F)cc1NC(=O)Nc1cc(C(F)(F)F)ccn1 [Compound 190, 4-ethoxy-N-(2,2,2-trifluoroethyl)-3-(3-(4-(trifluoromethyl)pyridin-2-yl)ureido)benzenesulfonamide]
IC50: 100 to 1000 nM

C[S+]([O-])c1cccc(NC(=O)Nc2cc(S(=O)(=O)NCC(F)(F)F)ccc2-c2ccccc2)c1 (stereo not drawn) [Compound 83, 2-(3-(3-(methylsulfinyl)phenyl)ureido)-N-(2,2,2-trifluoroethyl)-[1,1′-biphenyl]-4-sulfonamide]
IC50: 100 to 1000 nM

O=C(Nc1cccc(C(F)(F)F)c1)Nc1cc(S(=O)(=O)NCCO)ccc1-c1ccsc1 [Compound 120, N-(2-hydroxyethyl)-4-(thiophen-3-yl)-3-(3-(3-(trifluoromethyl)phenyl)ureido)benzenesulfonamide]
IC50: 100 to 1000 nM

O=C(Nc1cccc(C(F)(F)F)c1)Nc1cc(S(=O)(=O)Nc2ccccc2)ccc1-c1cccc(F)c1 [Compound 64]
IC50: 1000 to 10000 nM

O=C(Nc1ccc(F)c(Cl)c1)Nc1cc(S(=O)(=O)Nc2ccccc2)ccc1-c1ccsc1 [Compound 19]
IC50: 1000 to 10000 nM

O=C(Nc1ccc(F)cc1)Nc1cc(S(=O)(=O)NCC2CC2)ccc1C1=CCOCC1 [Compound 153]
IC50: 1000 to 10000 nM

O=C(Nc1ccc(F)cc1F)Nc1cc(S(=O)(=O)NCC(F)(F)F)ccc1-c1ccccc1 [Compound 68, 2-(3-(2,4-difluorophenyl)ureido)-N-(2,2,2-trifluoroethyl)-[1,1′-biphenyl]-4-sulfonamide]
IC50: 100 to 1000 nM

O=C(Nc1cccc(C(F)(F)F)c1)Nc1cc(S(=O)(=O)NCC(F)(F)F)ccc1-c1ccccc1 [Compound 44, N-(2,2,2-trifluoroethyl)-2-(3-(3-(trifluoromethyl)phenyl)ureido)-[1,1′-biphenyl]-4-sulfonamide]
IC50: 100 to 1000 nM

N#CC1(NS(=O)(=O)c2ccc(-c3ccccc3)c(NC(=O)Nc3cccc(C(F)(F)F)c3)c2)CC1 [Compound 46, N-(1-cyanocyclopropyl)-2-(3-(3-(trifluoromethyl)phenyl)ureido)-[1,1′-biphenyl]-4-sulfonamide]
IC50: 100 to 1000 nM

O=C(Nc1cccc(C(F)(F)F)c1)Nc1cc(S(=O)(=O)NC2COC2)ccc1-c1ccsc1 [Compound 32, N-(oxetan-3-yl)-4-(thiophen-3-yl)-3-(3-(3-(trifluoromethyl)phenyl)ureido)benzenesulfonamide]
IC50: < 100 nM

O=C(Nc1ccc(F)c(Cl)c1)Nc1cc(S(=O)(=O)NCC(F)(F)F)ccc1C1=CCOCC1 [Compound 158, 3-(3-(3-chloro-4-fluorophenyl)ureido)-4-(3,6-dihydro-2H-pyran-4-yl)-N-(2,2,2-trifluoroethyl)benzene sulfonamide]
IC50: 100 to 1000 nM

O=C(Nc1cccc(C(F)(F)F)c1)Nc1cc(S(=O)(=O)NC2COC2)cnc1OCC1CC1 [Compound 198, 6-(cyclopropylmethoxy)-N-(oxetan-3-yl)-5-(3-(3-(trifluoromethyl)phenyl)ureido)pyridine-3-sulfonamide]
IC50: 100 to 1000 nM

O=C(Nc1ccc(F)c(Cl)c1)Nc1cc(S(=O)(=O)NCC(F)(F)F)ccc1C1CCCCO1 (stereo not drawn) [Compound 166, 3-(3-(3-chloro-4-fluorophenyl)ureido)-4-(tetrahydro-2H-pyran-2-yl)-N-(2,2,2-trifluoroethyl)benzene sulfonamide]
IC50: 100 to 1000 nM

O=C(Nc1ncco1)Nc1cc(S(=O)(=O)Nc2ccccc2)ccc1-c1ccsc1 [Compound 23]
IC50: 1000 to 10000 nM

Cc1cc(NC(=O)Nc2cc(S(=O)(=O)NCC(F)(F)F)ccc2-c2ccccc2)nn1C [Compound 91, 2-(3-(1,5-dimethyl-1H-pyrazol-3-yl)ureido)-N-(2,2,2-trifluoroethyl)-[1,1′-biphenyl]-4-sulfonamide]
IC50: 100 to 1000 nM

O=C(Nc1cnccc1Cl)Nc1cc(S(=O)(=O)NCC(F)(F)F)ccc1-c1ccccc1 [Compound 85, 2-(3-(4-chloropyridin-3-yl)ureido)-N-(2,2,2-trifluoroethyl)-[1,1′-biphenyl]-4-sulfonamide]
IC50: 100 to 1000 nM

O=C(Nc1cncc(C(F)(F)F)c1)Nc1cc(S(=O)(=O)NCC(F)(F)F)ccc1-c1ccccc1 [Compound 94, N-(2,2,2-trifluoroethyl)-2-(3-(5-(trifluoromethyl)pyridin-3-yl)ureido)-[1,1′-biphenyl]-4-sulfonamide]
IC50: 100 to 1000 nM

O=C(Nc1cccc(Cl)c1)Nc1cc(S(=O)(=O)NCC2CC2)ccc1C1CCCCO1 (stereo not drawn) [Compound 163, 3-(3-(3-chlorophenyl)ureido)-N-(cyclopropylmethyl)-4-(tetrahydro-2H-pyran-2-yl)benzenesulfonamide]
IC50: 100 to 1000 nM

O=C(Nc1cccc(C(F)(F)F)c1)Nc1cc(S(=O)(=O)NC2COC2)ccc1OCC1CC1 [Compound 183, 4-(cyclopropylmethoxy)-N-(oxetan-3-yl)-3-(3-(3-(trifluoromethyl)phenyl)ureido)benzenesulfonamide]
IC50: 100 to 1000 nM

C=CCNS(=O)(=O)c1ccc(-c2ccsc2)c(NC(=O)Nc2cccc(C(F)(F)F)c2)c1 [Compound 119, N-allyl-4-(thiophen-3-yl)-3-(3-(3-(trifluoromethyl)phenyl)ureido)benzenesulfonamide]
IC50: 100 to 1000 nM

O=C(Nc1cccc(CO)c1)Nc1cc(S(=O)(=O)NCC(F)(F)F)ccc1-c1ccccc1 [Compound 80, 2-(3-(3-(hydroxymethyl)phenyl)ureido)-N-(2,2,2-trifluoroethyl)-[1,1′-biphenyl]-4-sulfonamide]
IC50: 100 to 1000 nM

O=C(Nc1ccccc1Cl)Nc1cc(S(=O)(=O)NCC(F)(F)F)ccc1-c1ccccc1 [Compound 42, 2-(3-(2-chlorophenyl)ureido)-N-(2,2,2-trifluoroethyl)-[1,1′-biphenyl]-4-sulfonamide]
IC50: 100 to 1000 nM

Cc1cccc(-c2ccc(S(=O)(=O)NC3CC3)cc2NC(=O)Nc2cccc(C(F)(F)F)c2)c1 [Compound 48, N-cyclopropyl-3′-methyl-2-(3-(3-(trifluoromethyl)phenyl)ureido)-[1,1′-biphenyl]-4-sulfonamide]
IC50: 1000 to 10000 nM

O=C(Nc1ccc(F)cc1F)Nc1cc(S(=O)(=O)NCC(F)(F)F)ccc1OCC1CC1 [Compound 188, 4-(cyclopropylmethoxy)-3-(3-(2,4-difluorophenyl)ureido)-N-(2,2,2-trifluoroethyl)benzenesulfonamide]
IC50: 100 to 1000 nM
